Test results published in patent publication US6291470A, “Indole derivatives process for producing the same and medicinal uses of the same” (Toray Industries, Inc., priority 1992, dated 2001).
Read-outs that look alike come from different tables or passages of the source.

Columns and labels:
δ-opioid receptor [1] = settings: Portoghese, J. Med. Chem. 33, 1547 (1990); cited from earlier work
δ-opioid receptor [2] = target: T1, δ-opioid receptor (Mus musculus, UniProt P32300); test: Change in δ-antagonist activity against DPDPE with time in mouse vas deferens (MVD); settings: for Ratio of IC50 Values / Kb: 173 and NTI at 20 nM, 174 and 5'-NTII at 100 nM; for Kb: read-out: Ke
T1 construct: from tissue; host or cells: vas deferens of male ddy mice
T1 sequence (P32300 whole entry): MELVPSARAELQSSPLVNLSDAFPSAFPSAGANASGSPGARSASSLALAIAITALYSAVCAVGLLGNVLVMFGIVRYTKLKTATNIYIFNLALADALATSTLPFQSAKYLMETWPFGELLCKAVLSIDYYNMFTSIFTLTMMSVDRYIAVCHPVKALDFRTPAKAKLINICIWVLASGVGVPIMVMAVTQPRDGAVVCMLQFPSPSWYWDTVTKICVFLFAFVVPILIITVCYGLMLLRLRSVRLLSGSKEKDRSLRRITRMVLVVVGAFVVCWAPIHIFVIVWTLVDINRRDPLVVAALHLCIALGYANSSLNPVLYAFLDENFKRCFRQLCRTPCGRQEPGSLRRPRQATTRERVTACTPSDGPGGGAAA
Procedure: In this experiment, ddy male mice were used. In a Magnus' tube which is filled with Krebes-Henseleit solution (NaCl […]; KCl 4.7 mM; CaCl2 2.5 mM; KH2 PO4 1.1 mM; NaHCO3 25 mM; glucose 11 mM) kept at 37° C., and into which an atmosphere consisting of 5% carbon dioxide and 95% oxygen was flown, vas deferens taken from the animals was suspended. Electric stimulation was applied through ring-shaped platinum electrodes mounted on the upper and lower portions of the tube at a frequency of 0.1 Hz and 5.0 mS duration. The contraction of the tissue was recorded on polygraph using isometric transducer.
Then 100 nM of the test compound was added. Twenty minutes later, DPDPE was begun to be added cumulatively. The ratio of IC50 values in the presence and absence of the test compound, Ke value (the molar concentration of the test compound necessary for translating the dose-effect curve to the curve of twice dose) and pA2 value were determined. The pA2 value was determined by the method of Shild et al (Shild, H. O., Br. J. Pharmac. Chamotehr., 4, 277 (1949)). That is, the logarithm of the test compound (log[test compound]) was plotted along the abscissa and the logarithm of the value obtained by subtracting 1 from the ratio of IC50 values was plotted in the presence and absence of the test compound [log(dose ratio-1)] along the ordinate. The pA2 value was determined from the value on the abscissa when the value on the ordinate of the obtained line is 0.
Using MVD, the antagonist activities of compounds 173 and 174 against DPDPE were determined. The ratio of IC50 values, Ke values and pA2 values at 15 minutes, 30 minutes and 1 hour from the addition of the test compounds were calculated. Since the concentrations of the test compounds are different, the reciprocals of Ke values were plotted in FIGS. 1 and 2.

## Oc1ccc2c3c1O[C@H]1c4[nH]c5ccc(N=C=S)cc5c4C[C@@]4(O)[C@@H](C2)N(CC2CC2)CC[C@]314 [5'-NTII, reference compound]
δ-opioid receptor [1]
  antagonist activity and selectivity to δ-opioid receptor (in words): antagonist activity and selectivity to δ-opioid receptor are low
δ-opioid receptor [2]; 15 min
  Ratio of IC50 Values: 3.28
  Kb: 43.9 nM
δ-opioid receptor [2]; 15 min to 1 hour
  change of antagonist activity with time (in words): increased with time
δ-opioid receptor [2]; 30 min
  Ratio of IC50 Values: 7.47
  Kb: 15.5 nM
δ-opioid receptor [2]; 60 min
  Ratio of IC50 Values: 9.36
  Kb: 12 nM
